Laboratory results reported in patent US11427553B2, “Dihydrooxadiazinones” (Bayer Aktiengesellschaft, priority 2017, dated 2022).

Legend:
human full length PDE3A = human full length PDE3A (Homo sapiens (Human), UniProt Q14432); assay: Assay 4 PDE3A enzyme inhibition (3H-cAMP SPA); format: biochemical; conditions: Sf9 cell extract
Experimental: Assay 4 Method for PDE3A Enzyme Inhibition
(§1) The commercially available 3H-cAMP Scintillation Proximity Assay (SPA, Perkin Elmer) system was used for enzyme inhibition studies. For the determination of the in vitro effect of example compounds on the PDE3A reactions 2 μl of the respective example compound solution in DMSO (serial dilutions) were placed in wells of microtiter plates (Isoplate-96/200W; Perkin Elmer). 50 μl of a dilution of PDE3A cell extract from Sf9 cells overexpressing human full length PDE3A (SB Drug Discovery, UK) in buffer A (50 mM Tris/HCl pH 7.5, 8.3 mM MgCl2, 1.7 mM EDTA, 0.2% BSA) was added. The dilution of the PDE3A cell extract was chosen such that the reaction kinetics was linear and less than 70% of the substrate was consumed (typical dilution 1:5000). The reaction was started by addition of 50 μl (0.025 μCi) of 1:2000 in buffer A w/o BSA diluted substrate [8-3H]adenosine 3′, 5′-cyclic phosphate (1 μCi/μl; Perkin Elmer). After incubation at room temperature for 60 min, the reaction was stopped by addition of 25 μl of a suspension containing 18 mg/ml yttrium scintillation proximity beads (Perkin Elmer) in water. The microtiter plates were sealed and measured in a Microbeta scintillation counter (PerkinElmer Wallac). IC50 values were determined from sigmoidal curves by plotting percentage PDE3A activity vs log compound concentration.

HeLa cells = assay: Assay 1 cell proliferation measurement (CTG, 72 h), HeLa; format: cell-based, human; conditions: Homo sapiens, HeLa; Assay 1, 72 h, Cell Titer Glo; read-out: HeLa IC50 [nM] (Cervical cancer)
Experimental: Cell Proliferation Measurement
The antiproliferative activity of the compounds of the general formula (I) was examined in vitro in human cancer cells. For this purpose, the appropriate number of cells (Hela: 800; SK-MEL-3: 1000; A549: 800) were plated in 384-well plates with appropriate growth medium ((A549: DMEM/Ham's F12 (Biochrom; #FG 4815 with stabile Glutamine), FCS 10% final (Biochrom; #S 0415); Hela: DMEM/Ham's F12 (Biochrom; #FG 4815 with stabile Glutamine), FCS 10% final (Biochrom; #S 0415); SK-MEL-3: McCoy's 5A (Biochrom; #F 1015), FCS 10% final (Biochrom; #S 0415), L-Alanyl-L-Glutamine final: 2 mM, (Biochrom; #K 0302)) and incubated at 37° C. overnight. After 24 h, cells on one plate (0 h plate) were treated with 30 μl/cavity of CTG solution (Promega Cell Titer Glo (catalogue #G755B and G756B)) and incubated at room temperature for 10 min, and luminescence was measured by means of a VICTOR V (Perkin Elmer), in order to determine cell viability on commencement of treatment. The cells on the test plate were treated with the compounds of the general formula (I) as and incubated at 37° C. for 72 h. The compounds were added to the cells by means of an HP D300 digital dispenser in a 10-step 2.5-fold dilution series generally starting at a maximum final drug concentration of 100 nM. As control, the cells were treated with vehicle (DMSO at 0.3% final concentration). After 72 h, the cells were treated with 30 μl/cavity of CTG solution (Promega Cell Titer Glo (catalogue #G755B and G756B)) and incubated at room temperature for 10 min. and luminescence was measured by means of a VICTOR V (Perkin Elmer), in order to determine cell viability at the end of treatment. The percentage effect on cell growth and the IC50 derived therefrom were determined for each test substance using the values from the 0 h plate […] and the DMSO control […]. The IC50 values were calculated using a 4-parameter fit.

human full length PDE3B = human full length PDE3B (Homo sapiens (Human), UniProt Q13370); assay: Assay 5 PDE3B enzyme inhibition (3H-cAMP SPA); format: biochemical; conditions: Sf9 cell extract
human full length PDE3B, sequence (Q13370 whole entry): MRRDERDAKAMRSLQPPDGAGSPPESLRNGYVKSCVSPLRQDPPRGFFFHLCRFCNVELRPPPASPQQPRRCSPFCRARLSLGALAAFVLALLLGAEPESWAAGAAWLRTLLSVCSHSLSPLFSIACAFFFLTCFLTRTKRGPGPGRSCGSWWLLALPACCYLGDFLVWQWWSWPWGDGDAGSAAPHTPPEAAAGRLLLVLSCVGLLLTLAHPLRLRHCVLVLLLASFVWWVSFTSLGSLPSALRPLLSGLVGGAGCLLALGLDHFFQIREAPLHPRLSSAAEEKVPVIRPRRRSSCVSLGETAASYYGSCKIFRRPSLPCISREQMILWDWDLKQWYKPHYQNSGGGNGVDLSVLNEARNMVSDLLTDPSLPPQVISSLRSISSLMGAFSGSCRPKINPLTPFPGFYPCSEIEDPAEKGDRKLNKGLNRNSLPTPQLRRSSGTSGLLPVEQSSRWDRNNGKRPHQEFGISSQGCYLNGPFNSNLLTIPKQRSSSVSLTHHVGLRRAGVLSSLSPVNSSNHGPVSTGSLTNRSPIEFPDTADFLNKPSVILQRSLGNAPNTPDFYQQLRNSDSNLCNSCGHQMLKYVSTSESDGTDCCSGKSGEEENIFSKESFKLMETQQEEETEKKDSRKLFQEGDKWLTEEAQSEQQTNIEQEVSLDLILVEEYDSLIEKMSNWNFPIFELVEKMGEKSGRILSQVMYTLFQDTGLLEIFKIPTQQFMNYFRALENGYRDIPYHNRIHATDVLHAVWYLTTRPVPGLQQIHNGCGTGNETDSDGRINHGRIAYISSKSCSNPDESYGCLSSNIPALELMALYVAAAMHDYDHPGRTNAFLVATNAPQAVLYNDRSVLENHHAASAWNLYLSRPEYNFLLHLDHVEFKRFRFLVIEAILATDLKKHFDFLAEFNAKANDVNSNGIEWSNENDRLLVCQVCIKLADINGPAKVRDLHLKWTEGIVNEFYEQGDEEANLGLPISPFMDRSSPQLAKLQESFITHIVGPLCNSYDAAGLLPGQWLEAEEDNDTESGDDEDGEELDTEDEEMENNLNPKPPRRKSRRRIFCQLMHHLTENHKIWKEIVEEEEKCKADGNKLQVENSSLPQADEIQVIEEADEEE
Experimental: as §1, with “PDE3B” for “PDE3A”, “1:6000).” for “1:5000).”

human full length PDE3A, sequence (Q14432 whole entry): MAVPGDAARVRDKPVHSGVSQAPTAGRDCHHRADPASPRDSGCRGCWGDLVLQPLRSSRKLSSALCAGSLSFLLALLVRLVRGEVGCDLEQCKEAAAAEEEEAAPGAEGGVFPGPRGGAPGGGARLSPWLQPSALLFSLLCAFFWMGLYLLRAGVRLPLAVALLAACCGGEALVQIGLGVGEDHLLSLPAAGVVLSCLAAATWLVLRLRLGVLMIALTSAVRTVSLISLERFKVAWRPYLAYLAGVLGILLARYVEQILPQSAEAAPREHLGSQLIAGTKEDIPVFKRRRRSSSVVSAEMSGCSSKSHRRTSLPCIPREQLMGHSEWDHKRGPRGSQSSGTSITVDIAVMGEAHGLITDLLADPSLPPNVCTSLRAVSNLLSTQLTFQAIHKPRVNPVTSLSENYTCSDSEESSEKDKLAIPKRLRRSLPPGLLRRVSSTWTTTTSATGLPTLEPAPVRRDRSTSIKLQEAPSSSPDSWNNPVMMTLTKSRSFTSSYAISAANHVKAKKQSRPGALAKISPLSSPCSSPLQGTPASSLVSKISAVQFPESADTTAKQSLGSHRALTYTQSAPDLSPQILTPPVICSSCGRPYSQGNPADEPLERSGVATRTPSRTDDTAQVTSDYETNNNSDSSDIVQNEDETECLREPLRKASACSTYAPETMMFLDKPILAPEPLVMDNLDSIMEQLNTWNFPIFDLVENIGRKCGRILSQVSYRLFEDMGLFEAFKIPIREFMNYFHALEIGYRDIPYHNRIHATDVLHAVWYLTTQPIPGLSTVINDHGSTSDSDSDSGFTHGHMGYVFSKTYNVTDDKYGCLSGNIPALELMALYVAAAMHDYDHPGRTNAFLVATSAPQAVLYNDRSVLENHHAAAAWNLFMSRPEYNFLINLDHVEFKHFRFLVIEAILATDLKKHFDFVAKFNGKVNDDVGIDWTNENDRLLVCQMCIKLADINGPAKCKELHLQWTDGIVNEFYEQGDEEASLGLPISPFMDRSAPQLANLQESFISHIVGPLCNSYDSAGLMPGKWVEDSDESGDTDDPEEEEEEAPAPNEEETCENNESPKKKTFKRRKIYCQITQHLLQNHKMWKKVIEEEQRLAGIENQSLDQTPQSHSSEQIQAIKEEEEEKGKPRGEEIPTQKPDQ

Row | SMILES | IC50 (human full length PDE3A) | IC50 (HeLa cells) | IC50 (human full length PDE3B)
1 | O=C1NN=C(c2ccc(NCCn3cccn3)c(C(F)(F)F)c2)CO1 [Example 238, 5-[4-{[2-(1H-Pyrazol-1-yl)ethyl]amino}-3-(trifluoromethyl)phenyl]-3,6-dihydro-2H-1,3,4-oxadiazin-2-one] | 88 nM | 7 nM | 300 nM
2 | O=C1NN=C(c2ccc(N[C@@H]3C[C@@H]4CC[C@@H]3C4)c(C(F)(F)F)c2)CO1 [Example 233, 5-[4-{[(1R,2R,4R)-Bicyclo[2.2.1]heptan-2-yl]amino}-3-(trifluoromethyl)phenyl]-3,6-dihydro-2H-1,3,4-oxadiazin-2-one] | 86 nM | 8 nM | 250 nM
3 | CC(=O)NCCNc1ccc(C2=NNC(=O)OC2)cc1C(F)(F)F [Example 316, N-{2-[4-(2-oxo-3,6-dihydro-2H-1,3,4-oxadiazin-5-yl)-2-(trifluoromethyl)anilino]ethyl}acetamide] |  | > 100 nM | 
4 | CCN1CCCC1CNc1ccc(C2=NNC(=O)OC2)cc1C(F)(F)F (stereo not shown) [Example 315, 5-[4-{[(1-ethylpyrrolidin-2-yl)methyl]amino}-3-(trifluoromethyl)phenyl]-3,6-dihydro-2H-1,3,4-oxadiazin-2-one] |  | > 100 nM | 
5 | CN(CC(C)(C)O)c1ccc(C2=NNC(=O)OC2)cc1C(F)(F)F [Example 283, 5-{4-[(2-hydroxy-2-methylpropyl)(methyl)amino]-3-(trifluoromethyl)phenyl}-3,6-dihydro-2H-1,3,4-oxadiazin-2-one] |  | 13 nM | 
6 | CN1CCCC(Nc2ccc(C3=NNC(=O)OC3)cc2C(F)(F)F)CC1 (stereo not shown) [Example 301, 5-{4-[(1-methylazepan-4-yl)amino]-3-(trifluoromethyl)phenyl}-3,6-dihydro-2H-1,3,4-oxadiazin-2-one] |  | > 100 nM | 
7 | CCCC(CO)Nc1ccc(C2=NNC(=O)OC2)cc1C(F)(F)F (stereo not shown) [Example 285, 5-{4-[(1-hydroxypentan-2-yl)amino]-3-(trifluoromethyl)phenyl}-3,6-dihydro-2H-1,3,4-oxadiazin-2-one] |  | 14 nM | 
8 | O=C1NN=C(c2ccc(NCCN3CCNC3=O)c(C(F)(F)F)c2)CO1 [Example 313, 5-[4-{[2-(2-oxoimidazolidin-1-yl)ethyl]amino}-3-(trifluoromethyl)phenyl]-3,6-dihydro-2H-1,3,4-oxadiazin-2-one] |  | > 100 nM | 
9 | O=C1NN=C(c2ccc(NCCN3CCCCC3)c(C(F)(F)F)c2)CO1 [Example 317, 5-[4-{[2-(piperidin-1-yl)ethyl]amino}-3-(trifluoromethyl)phenyl]-3,6-dihydro-2H-1,3,4-oxadiazin-2-one] |  | > 100 nM | 
10 | CC(C)C[C@H](CO)Nc1ccc(C2=NNC(=O)OC2)cc1C(F)(F)F [Example 293, 5-[4-{[(2R)-1-hydroxy-4-methylpentan-2-yl]amino}-3-(trifluoromethyl)phenyl]-3,6-dihydro-2H-1,3,4-oxadiazin-2-one] |  | 43 nM | 
11 | CC1(CNc2ccc(C3=NNC(=O)OC3)cc2C(F)(F)F)CCOCC1 [Example 298, 5-[4-{[(4-methyloxan-4-yl)methyl]amino}-3-(trifluoromethyl)phenyl]-3,6-dihydro-2H-1,3,4-oxadiazin-2-one] |  | 62 nM | 
12 | O=C1CCC(CNc2ccc(C3=NNC(=O)OC3)cc2C(F)(F)F)N1 (stereo not shown) [Example 290, 5-[4-{[(5-oxopyrrolidin-2-yl)methyl]amino}-3-(trifluoromethyl)phenyl]-3,6-dihydro-2H-1,3,4-oxadiazin-2-one] |  | 32 nM | 

Further lines, results first:

Row | IC50 (human full length PDE3A) | IC50 (HeLa cells) | IC50 (human full length PDE3B) | SMILES
13 | 120 nM | 0.4 nM | 140 nM | O=C1NN=C(c2ccc(NCc3cc[nH]n3)c(C(F)(F)F)c2)CO1 [Example 237, 5-[4-{[(1H-Pyrazol-3-yl)methyl]amino}-3-(trifluoromethyl)phenyl]-3,6-dihydro-2H-1,3,4-oxadiazin-2-one]
14 | 110 nM | 1 nM | 86 nM | O=C1NN=C(c2ccc(N3CC4CC4C3)c(C(F)(F)F)c2)CO1 (stereo not shown) [Example 252, 5-[4-(3-Azabicyclo[3.1.0]hexan-3-yl)-3-(trifluoromethyl)phenyl]-3,6-dihydro-2H-1,3,4-oxadiazin-2-one]
15 | 13 nM | 1 nM | 9 nM | O=C1NN=C(c2ccc(N3CCC(O)CC3)c(C(F)(F)F)c2)CO1 [Example 227, 5-[4-(4-Hydroxypiperidin-1-yl)-3-(trifluoromethyl)phenyl]-3,6-dihydro-2H-1,3,4-oxadiazin-2-one]
16 | 58 nM | 7 nM | 100 nM | NC(=O)C1CCCN(c2ccc(C3=NNC(=O)OC3)cc2C(F)(F)F)C1 (racemic) [Example 230, (rac)-1-[4-(2-Oxo-3,6-dihydro-2H-1,3,4-oxadiazin-5-yl)-2-(trifluoromethyl)phenyl]piperidine-3-carboxamide]
17 | 120 nM | 3 nM | 150 nM | O=C1NN=C(c2ccc(NCc3ncccn3)c(C(F)(F)F)c2)CO1 [Example 244, 5-[4-{[(Pyrimidin-2-yl)methyl]amino}-3-(trifluoromethyl)phenyl]-3,6-dihydro-2H-1,3,4-oxadiazin-2-one]
18 | 400 nM | 7 nM | 920 nM | CC[C@@H](CO)Nc1ccc(C2=NNC(=O)OC2)cc1C(F)(F)F [Example 228, 5-[4-{[(2S)-1-Hydroxybutan-2-yl]amino}-3-(trifluoromethyl)phenyl]-3,6-dihydro-2H-1,3,4-oxadiazin-2-one]
19 | 100 nM | 1 nM | 110 nM | O=C1NN=C(c2ccc(NCC3(CO)CCC3)c(C(F)(F)F)c2)CO1 [Example 249, 5-[4-({[1-(Hydroxymethyl)cyclobutyl]methyl}amino)-3-(trifluoromethyl)phenyl]-3,6-dihydro-2H-1,3,4-oxadiazin-2-one]
20 | 75 nM | 3 nM | 100 nM | O=C1NN=C(c2ccc(NCC3CCOC3)c(C(F)(F)F)c2)CO1 (racemic) [Example 245, (rac)-5-[4-{[(Oxolan-3-yl)methyl]amino}-3-(trifluoromethyl)phenyl]-3,6-dihydro-2H-1,3,4-oxadiazin-2-one]
21 | 100 nM | 5 nM | 76 nM | O=C1NN=C(c2ccc(N3CC4(C3)CS(=O)(=O)C4)c(C(F)(F)F)c2)CO1 [Example 255, 6-[4-(2-Oxo-3,6-dihydro-2H-1,3,4-oxadiazin-5-yl)-2-(trifluoromethyl)phenyl]-2λ^6-thia-6-azaspiro[3.3]heptane-2,2-dione]
22 | 92 nM | 2 nM | 130 nM | COC(C)CNc1ccc(C2=NNC(=O)OC2)cc1C(F)(F)F (racemic) [Example 242, (rac)-5-{4-[(2-Methoxypropyl)amino]-3-(trifluoromethyl)phenyl}-3,6-dihydro-2H-1,3,4-oxadiazin-2-one]
